Reference: publication PMC6270530, “Structural Characterization of de Novo Designed L5K5W Model Peptide Isomers with Potent Antimicrobial and Varied Hemolytic Activities” (Molecules, 2013)
No end group written: not given here.

Legend:
[1] = tested on: Shigella dysentariae ATCC 9752; format: cell-based; settings: broth microdilution, 1–128 μg/mL two-fold dilutions; triplicate, value reproduced twice or three times
Description: (§1) The antimicrobial activity of each peptide was determined against four strains of Gram-positive bacteria (Bacillus subtilis ATCC 6633, Staphylococcus aureus ATCC 6538p, Staphylococcus epidermis ATCC 12228, and Micrococcus luteus ATCC 10240) and five strains of Gram-negative bacteria (Escherichia coli ATCC 25922, Shigella dysentariae ATCC 9752, Salmonella typhomurium ATCC 14028, Klebsiella pneumoniae ATCC 10031, and Pseudomonas aeruginosa ATCC 27853). In addition, a methicillin-resistant Staphylococcus aureus strain, MRSA-TK784 [21, 42], was employed as a multi-drug resistant bacterium. Antimicrobial susceptibility was measured as the minimal inhibitory concentration (MIC), which was determined by the standard broth microdilution method, as described previously. […] The tests were performed in triplicate, and the MIC values that were reproduced twice or three times in the three independent measurements were recorded.

MRSA-TK784 = format: cell-based, methicillin-resistant Staphylococcus aureus; settings: Methicillin-Resistant S. aureus; broth microdilution, 1–128 μg/mL two-fold dilutions; triplicate
Description: as §1

[2] = tested on: 4 Gram-positive strains tested; format: cell-based, Gram-positive bacteria; settings: against 4 Gram-positive strains tested
Description: (§2) Table 1 summarizes the MIC values of our model peptide isomers against various bacterial species, including four Gram-positive, five Gram-negative and a multi-drug resistant strain. […] In addition, all of the peptides were fairly active (MICs ≤ 16 μg/mL) against the MRSA-TK784 strain, which is not susceptible to β-lactam antibiotics and protein synthesis inhibitors and moderately resistant to vancomycin [21, 42].
as §1

[3] = tested on: 5 Gram-negative strains tested; format: cell-based, Gram-negative bacteria; settings: against 5 Gram-negative strains tested
Description: as §2, §1

[4] = tested on: all of the 9 strains tested; format: cell-based, Gram-positive and Gram-negative bacteria; settings: against all of the 9 strains tested
Description: as §2, §1

human red blood cells = format: cell-based
Description: The hemolytic assay was performed as described previously. In brief, suspensions of human red blood cells (10% v/v in PBS) were treated for 1 h with various concentrations (1–128 μg/mL, two-fold serial dilutions) of the peptides. The absorbance of the supernatant was then measured at 550 nm. The relative value to 100% hemolysis of human red blood cells treated with 0.2% Triton X-100 was defined as the percentage of hemolysis. The tests were performed using triplicate samples, and the average values of the three independent measurements were recorded. The minimal hemolytic concentration (MHC) value was determined as the lowest peptide concentration that produces more than 5% hemolysis.

| Substance | Minimal inhibitory concentration, S. dysentariae [1] [µg/mL] | Minimal inhibitory concentration, MRSA-TK784 (MRSA-TK784) [µg/mL] | GM (geometric mean of MICs), Gram (+) [2] [µg/mL] | GM (geometric mean of MICs), Gram (−) [3] [µg/mL] | GM (geometric mean of MICs), Gram (+,−) [4] [µg/mL] | hemolytic activity (in words) (human red blood cells) |
| --- | --- | --- | --- | --- | --- | --- |
| WLKKLLKKLLK-NH2 [W1] | 2 | 8 | 2.4 | 3.0 | 2.7 | – |
| LLKWLKKLLKK-NH2 [W4] | 2 | – | 2.4 | 3.5 | 2.9 | – |
| LKWLKKLLKKL-NH2 [W3] | 2 | – | – | 3.5 | 3.2 | – |
| KWLKKLLKKLL-NH2 [W2] | 1 | – | 2.4 | 2.3 | 2.3 | – |
| LKKLLKKLLKW-NH2 [W11] | 2 | 16 | 2.4 | 3.5 | 2.9 | – |
| LKKLLKWLKKL-NH2 [W7] | 2 | – | 2.4 | 3.0 | 2.7 | – |
| KLLKKLLKWLK-NH2 [W9] | 2 | – | 2.4 | 2.3 | 2.3 | – |
| KKLLKKLLKWL-NH2 [W10] | 1 | – | 1.2 | 1.7 | 1.5 | – |
| KKLLKWLKKLL-NH2 [W6] | 2 | – | – | 3.5 | 3.2 | somewhat hemolytic |
| KLLKWLKKLLK-NH2 [W5] | 2 | – | 2.0 | 2.6 | 2.3 | – |
| LLKKLLKWLKK-NH2 [W8] | 4 | – | 3.4 | 4.6 | 4.0 | – |
